Source: the kinase profiling compilation of Christmann-Franck et al. (2016)

Key:
Test in all cases: KINOMEscan competition binding
[1] = tested on: ABL1 (human), P00519 [Y253F]; conditions: compound 10.0 µM
[2] = biological target: BLK (human) (UniProt P51451); conditions: compound 10.0 µM
[3] = biological target: BMPR1B (human) (UniProt O00238); conditions: compound 10.0 µM
[4] = biological target: BTK (human) (UniProt Q06187); conditions: compound 10.0 µM
[5] = biological target: CAMK2B (human) (UniProt Q13554); conditions: compound 10.0 µM
[6] = biological target: CDK15 (human) (UniProt Q96Q40); conditions: compound 10.0 µM
CDK15 (human), sequence (Q96Q40 whole entry, looked up): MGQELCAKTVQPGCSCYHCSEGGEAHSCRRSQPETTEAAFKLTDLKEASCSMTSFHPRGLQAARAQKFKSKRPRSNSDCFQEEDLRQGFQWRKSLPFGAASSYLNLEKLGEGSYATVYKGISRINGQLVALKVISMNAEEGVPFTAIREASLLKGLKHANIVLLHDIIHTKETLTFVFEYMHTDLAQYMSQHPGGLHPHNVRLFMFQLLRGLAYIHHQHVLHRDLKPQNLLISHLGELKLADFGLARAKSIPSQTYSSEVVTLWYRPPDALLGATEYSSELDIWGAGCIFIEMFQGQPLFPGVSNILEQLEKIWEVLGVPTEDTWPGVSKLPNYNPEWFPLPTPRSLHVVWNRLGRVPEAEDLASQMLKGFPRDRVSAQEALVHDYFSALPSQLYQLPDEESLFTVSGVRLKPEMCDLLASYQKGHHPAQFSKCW

[7] = biological target: CSNK1A1 (human) (UniProt P48729); conditions: compound 10.0 µM
[8] = biological target: CSNK1A1L (human) (UniProt Q8N752); conditions: compound 10.0 µM
[9] = biological target: CSNK1G2 (human) (UniProt P78368); conditions: compound 10.0 µM
[10] = biological target: CSNK2A1 (human) (UniProt P68400); conditions: compound 10.0 µM
[11] = biological target: DCLK1 (human) (UniProt O15075)
DCLK1 (human), sequence (O15075 whole entry, looked up): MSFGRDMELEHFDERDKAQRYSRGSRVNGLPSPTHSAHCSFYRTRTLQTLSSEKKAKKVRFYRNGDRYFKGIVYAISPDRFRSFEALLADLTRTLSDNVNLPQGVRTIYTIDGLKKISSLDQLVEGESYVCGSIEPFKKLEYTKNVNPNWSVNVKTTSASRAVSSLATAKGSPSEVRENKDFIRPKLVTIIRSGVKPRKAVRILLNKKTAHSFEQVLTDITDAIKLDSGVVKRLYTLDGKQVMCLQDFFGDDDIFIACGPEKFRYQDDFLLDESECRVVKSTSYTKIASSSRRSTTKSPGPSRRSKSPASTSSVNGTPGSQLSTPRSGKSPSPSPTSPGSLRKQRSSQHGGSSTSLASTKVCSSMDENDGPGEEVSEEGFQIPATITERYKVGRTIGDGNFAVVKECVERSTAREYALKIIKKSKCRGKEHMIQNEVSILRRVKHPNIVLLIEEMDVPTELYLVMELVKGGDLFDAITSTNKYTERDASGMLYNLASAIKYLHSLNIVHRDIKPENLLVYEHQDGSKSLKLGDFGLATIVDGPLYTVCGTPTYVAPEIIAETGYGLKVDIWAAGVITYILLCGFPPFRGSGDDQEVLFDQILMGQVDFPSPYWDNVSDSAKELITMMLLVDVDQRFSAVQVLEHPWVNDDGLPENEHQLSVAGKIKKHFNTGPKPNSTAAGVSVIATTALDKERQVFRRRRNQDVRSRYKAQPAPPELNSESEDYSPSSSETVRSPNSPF

[12] = tested on: EIF2AK4 KD2 (human), Q9P2K8 [S808G]; conditions: compound 10.0 µM
[13] = biological target: EPHA6 (human) (UniProt Q9UF33); conditions: compound 10.0 µM
[14] = biological target: ERBB2 (human) (UniProt P04626); conditions: compound 10.0 µM
[15] = tested on: FGFR3 (human), P22607 [G697C]; conditions: compound 10.0 µM
FGFR3 (human), P22607 [G697C], sequence (P22607 whole entry G697C, looked up): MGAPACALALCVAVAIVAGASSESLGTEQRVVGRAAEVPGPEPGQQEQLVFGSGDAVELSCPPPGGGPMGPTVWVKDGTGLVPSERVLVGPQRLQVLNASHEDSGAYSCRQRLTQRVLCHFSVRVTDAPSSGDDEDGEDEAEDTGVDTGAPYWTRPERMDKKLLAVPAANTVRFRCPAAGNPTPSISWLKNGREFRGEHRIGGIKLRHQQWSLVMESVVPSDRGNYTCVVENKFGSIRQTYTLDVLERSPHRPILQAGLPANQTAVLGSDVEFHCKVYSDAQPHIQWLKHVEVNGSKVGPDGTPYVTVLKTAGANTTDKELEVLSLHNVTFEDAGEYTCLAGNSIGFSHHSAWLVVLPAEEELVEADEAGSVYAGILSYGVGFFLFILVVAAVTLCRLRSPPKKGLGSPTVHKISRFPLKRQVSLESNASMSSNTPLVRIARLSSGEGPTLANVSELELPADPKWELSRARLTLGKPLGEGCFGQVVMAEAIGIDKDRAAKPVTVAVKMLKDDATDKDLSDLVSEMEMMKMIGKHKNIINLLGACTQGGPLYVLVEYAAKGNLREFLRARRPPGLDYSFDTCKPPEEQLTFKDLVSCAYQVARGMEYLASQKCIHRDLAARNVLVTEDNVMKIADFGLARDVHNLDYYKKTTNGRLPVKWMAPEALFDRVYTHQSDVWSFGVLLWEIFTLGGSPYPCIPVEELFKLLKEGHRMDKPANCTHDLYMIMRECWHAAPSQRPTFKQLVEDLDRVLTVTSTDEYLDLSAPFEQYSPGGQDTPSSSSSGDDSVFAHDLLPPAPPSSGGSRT

[16] = biological target: GRK4 (human) (UniProt P32298); conditions: compound 10.0 µM
[17] = biological target: HUNK (human) (UniProt P57058); conditions: compound 10.0 µM
[18] = biological target: IGF1R (human) (UniProt P08069); conditions: compound 10.0 µM
[19] = biological target: IKBKE (human) (UniProt Q14164); conditions: compound 10.0 µM
[20] = tested on: KIT (human), P10721 [V559D/V654A]; conditions: compound 10.0 µM
[21] = biological target: MAP2K2 (human) (UniProt P36507); conditions: compound 10.0 µM
[22] = biological target: MAP3K12 (human) (UniProt Q12852); conditions: compound 10.0 µM
[23] = biological target: MAPK7 (human) (UniProt Q13164); conditions: compound 10.0 µM
[24] = biological target: MINK1 (human) (UniProt Q8N4C8); conditions: compound 10.0 µM
[25] = biological target: MTOR (human) (UniProt P42345); conditions: compound 10.0 µM
[26] = biological target: NEK1 (human) (UniProt Q96PY6); conditions: compound 10.0 µM
NEK1 (human), sequence (Q96PY6 whole entry, looked up): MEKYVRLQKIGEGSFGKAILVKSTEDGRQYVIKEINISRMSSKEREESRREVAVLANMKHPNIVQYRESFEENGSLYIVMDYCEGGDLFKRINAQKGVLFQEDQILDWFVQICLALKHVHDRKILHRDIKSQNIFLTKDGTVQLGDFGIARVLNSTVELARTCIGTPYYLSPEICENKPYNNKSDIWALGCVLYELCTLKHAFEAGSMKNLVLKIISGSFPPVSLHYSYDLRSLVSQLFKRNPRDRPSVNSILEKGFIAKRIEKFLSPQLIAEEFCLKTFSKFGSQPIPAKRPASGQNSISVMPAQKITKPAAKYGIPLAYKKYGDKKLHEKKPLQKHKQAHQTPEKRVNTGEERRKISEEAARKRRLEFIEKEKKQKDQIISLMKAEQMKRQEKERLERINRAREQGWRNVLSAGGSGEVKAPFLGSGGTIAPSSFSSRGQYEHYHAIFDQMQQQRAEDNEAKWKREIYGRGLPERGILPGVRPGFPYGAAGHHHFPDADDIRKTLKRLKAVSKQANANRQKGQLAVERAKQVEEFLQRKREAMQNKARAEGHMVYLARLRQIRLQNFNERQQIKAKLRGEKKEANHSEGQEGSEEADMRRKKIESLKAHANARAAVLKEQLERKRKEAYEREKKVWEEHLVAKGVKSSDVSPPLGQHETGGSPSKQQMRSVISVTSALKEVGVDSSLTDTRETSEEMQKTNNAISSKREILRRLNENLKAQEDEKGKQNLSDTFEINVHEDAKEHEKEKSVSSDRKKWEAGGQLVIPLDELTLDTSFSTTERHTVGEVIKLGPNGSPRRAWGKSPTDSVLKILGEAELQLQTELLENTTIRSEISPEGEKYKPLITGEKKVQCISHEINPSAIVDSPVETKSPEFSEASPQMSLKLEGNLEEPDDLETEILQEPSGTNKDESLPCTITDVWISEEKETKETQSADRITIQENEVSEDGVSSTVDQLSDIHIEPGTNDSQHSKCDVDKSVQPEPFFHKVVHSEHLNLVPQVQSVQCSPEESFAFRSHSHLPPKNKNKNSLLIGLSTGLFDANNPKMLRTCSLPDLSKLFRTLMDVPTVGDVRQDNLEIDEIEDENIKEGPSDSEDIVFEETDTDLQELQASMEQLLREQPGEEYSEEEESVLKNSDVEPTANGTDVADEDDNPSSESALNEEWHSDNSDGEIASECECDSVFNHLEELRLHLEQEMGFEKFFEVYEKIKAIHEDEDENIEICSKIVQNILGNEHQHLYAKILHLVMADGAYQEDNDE

[27] = biological target: NTRK1 (human) (UniProt P04629); conditions: compound 10.0 µM
[28] = biological target: PAK1 (human) (UniProt Q13153); conditions: compound 10.0 µM
PAK1 (human), sequence (Q13153 whole entry, looked up): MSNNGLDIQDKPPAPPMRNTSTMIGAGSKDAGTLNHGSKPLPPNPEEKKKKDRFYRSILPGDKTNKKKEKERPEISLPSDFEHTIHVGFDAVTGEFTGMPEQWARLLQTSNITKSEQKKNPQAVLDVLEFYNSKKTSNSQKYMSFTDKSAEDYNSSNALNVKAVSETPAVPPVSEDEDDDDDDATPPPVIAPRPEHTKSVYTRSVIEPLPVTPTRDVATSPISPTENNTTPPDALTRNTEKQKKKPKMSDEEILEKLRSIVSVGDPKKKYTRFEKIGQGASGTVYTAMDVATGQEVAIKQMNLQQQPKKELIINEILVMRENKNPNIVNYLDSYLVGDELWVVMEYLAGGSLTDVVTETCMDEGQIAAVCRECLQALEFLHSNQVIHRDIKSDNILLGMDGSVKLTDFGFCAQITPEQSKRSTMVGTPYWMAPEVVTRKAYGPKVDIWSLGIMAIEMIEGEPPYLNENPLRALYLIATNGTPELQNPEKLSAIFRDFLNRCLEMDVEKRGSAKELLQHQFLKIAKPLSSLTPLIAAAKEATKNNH

[29] = biological target: PAK3 (human) (UniProt O75914); conditions: compound 10.0 µM
[30] = biological target: PAK7 (human) (UniProt Q9P286); conditions: compound 10.0 µM
[31] = biological target: PIK3CA (human) (UniProt P42336); conditions: compound 10.0 µM
[32] = biological target: PIP5K1C (human) (UniProt O60331); conditions: compound 10.0 µM
[33] = biological target: PRKCD (human) (UniProt Q05655); conditions: compound 10.0 µM
[34] = biological target: PTK2B (human) (UniProt Q14289); conditions: compound 10.0 µM
[35] = biological target: RPS6KA1 KD2 (human) (UniProt Q15418); conditions: compound 10.0 µM
RPS6KA1 KD2 (human), sequence (Q15418 whole entry, looked up): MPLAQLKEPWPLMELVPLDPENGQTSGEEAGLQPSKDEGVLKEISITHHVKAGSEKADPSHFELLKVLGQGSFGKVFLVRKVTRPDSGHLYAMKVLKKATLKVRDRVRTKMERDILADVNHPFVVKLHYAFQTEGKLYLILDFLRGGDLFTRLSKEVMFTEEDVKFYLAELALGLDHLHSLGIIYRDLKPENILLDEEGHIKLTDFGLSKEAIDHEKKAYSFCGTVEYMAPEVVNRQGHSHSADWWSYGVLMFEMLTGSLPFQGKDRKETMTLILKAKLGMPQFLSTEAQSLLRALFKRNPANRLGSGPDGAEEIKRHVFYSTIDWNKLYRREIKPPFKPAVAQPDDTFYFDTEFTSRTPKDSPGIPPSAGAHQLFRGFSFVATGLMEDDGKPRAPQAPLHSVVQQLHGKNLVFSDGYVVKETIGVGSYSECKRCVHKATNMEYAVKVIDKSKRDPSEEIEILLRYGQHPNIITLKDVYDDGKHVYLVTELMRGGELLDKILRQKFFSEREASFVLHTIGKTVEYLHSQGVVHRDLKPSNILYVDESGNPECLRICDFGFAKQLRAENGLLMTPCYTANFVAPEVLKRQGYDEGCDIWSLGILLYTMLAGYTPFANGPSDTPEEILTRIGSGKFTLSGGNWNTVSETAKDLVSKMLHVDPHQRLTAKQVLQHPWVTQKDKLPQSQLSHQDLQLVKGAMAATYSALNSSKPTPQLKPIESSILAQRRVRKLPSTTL

[36] = biological target: RPS6KA5 KD1 (human) (UniProt O75582); conditions: compound 10.0 µM
[37] = biological target: STK17B (human) (UniProt O94768); conditions: compound 10.0 µM
STK17B (human), sequence (O94768 whole entry, looked up): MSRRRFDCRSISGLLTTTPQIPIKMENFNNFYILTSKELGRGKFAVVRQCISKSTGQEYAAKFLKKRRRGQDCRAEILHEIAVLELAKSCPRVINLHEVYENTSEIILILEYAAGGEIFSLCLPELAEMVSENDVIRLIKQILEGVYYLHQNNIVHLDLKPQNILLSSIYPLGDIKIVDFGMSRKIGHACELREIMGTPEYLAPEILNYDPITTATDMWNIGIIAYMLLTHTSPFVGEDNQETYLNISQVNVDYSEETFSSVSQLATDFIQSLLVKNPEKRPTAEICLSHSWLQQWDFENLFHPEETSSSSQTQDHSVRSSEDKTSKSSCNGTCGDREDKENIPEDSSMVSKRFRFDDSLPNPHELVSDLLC

[38] = biological target: STK35 (human) (UniProt Q8TDR2); conditions: compound 10.0 µM
[39] = biological target: STK4 (human) (UniProt Q13043); conditions: compound 10.0 µM
[40] = biological target: ULK1 (human) (UniProt O75385); conditions: compound 10.0 µM
[41] = biological target: WEE1 (human) (UniProt P30291); conditions: compound 10.0 µM

COc1cc(C(=O)N2CCC(N3CCN(C)CC3)CC2)ccc1Nc1ncc2c(n1)N(C)c1ccccc1C(=O)N2C
kinase still bound, per cent of control [1]: 89% | kinase still bound, per cent of control [2]: 97% | kinase still bound, per cent of control [3]: 76% | kinase still bound, per cent of control [4]: 100% | kinase still bound, per cent of control [5]: 62% | residual activity [6]: 100% | kinase still bound, per cent of control [7]: 100% | kinase still bound, per cent of control [8]: 100% | kinase still bound, per cent of control [9]: 100% | kinase still bound, per cent of control [10]: 100% | Kd [11]: 5 nM | kinase still bound, per cent of control ([11]; compound 10.0 µM): 4.2% | kinase still bound, per cent of control [12]: 95% | kinase still bound, per cent of control [13]: 89% | kinase still bound, per cent of control [14]: 100% | kinase still bound, per cent of control [15]: 85% | kinase still bound, per cent of control [16]: 86% | kinase still bound, per cent of control [17]: 100% | residual activity [18]: 96% | kinase still bound, per cent of control [19]: 96% | kinase still bound, per cent of control [20]: 100% | kinase still bound, per cent of control [21]: 99% | residual activity [22]: 81% | kinase still bound, per cent of control [23]: 0.05% | kinase still bound, per cent of control [24]: 77% | kinase still bound, per cent of control [25]: 97% | kinase still bound, per cent of control [26]: 83% | kinase still bound, per cent of control [27]: 69% | kinase still bound, per cent of control [28]: 95% | kinase still bound, per cent of control [29]: 83% | kinase still bound, per cent of control [30]: 96% | kinase still bound, per cent of control [31]: 74% | kinase still bound, per cent of control [32]: 96% | kinase still bound, per cent of control [33]: 75% | kinase still bound, per cent of control [34]: 78% | kinase still bound, per cent of control [35]: 10% | kinase still bound, per cent of control [36]: 96% | kinase still bound, per cent of control [37]: 93% | kinase still bound, per cent of control [38]: 100% | kinase still bound, per cent of control [39]: 100% | kinase still bound, per cent of control [40]: 80% | kinase still bound, per cent of control [41]: 100%
